In US20230024096A1, “BIFUNCTIONAL COMPOUNDS FOR THE TREATMENT OF CANCER” (Hoffmann-La Roche Inc., priority 2019, published 2023):

Biological target: T1, SMARCA2 (Homo sapiens, UniProt P51531)
T1 construct: endogenous in cells; host or cells: HT1080 (CRISPR HiBiT knock-in clone, generated in house)
Test: SMARCA2 HiBiT degradation assay (cellular)
Type: cell-based
Settings: table head names A549; for DC50: 6 h incubation, HiBiT-tagged SMARCA2, luminescence read-out, read-out: HiBit A549 SMARCA2 IP (nM) 6 h; for Emax: A549, 6 h incubation, Emax = amount of residual protein remaining in the cell following compound treatment

T1 sequence (P51531 whole entry): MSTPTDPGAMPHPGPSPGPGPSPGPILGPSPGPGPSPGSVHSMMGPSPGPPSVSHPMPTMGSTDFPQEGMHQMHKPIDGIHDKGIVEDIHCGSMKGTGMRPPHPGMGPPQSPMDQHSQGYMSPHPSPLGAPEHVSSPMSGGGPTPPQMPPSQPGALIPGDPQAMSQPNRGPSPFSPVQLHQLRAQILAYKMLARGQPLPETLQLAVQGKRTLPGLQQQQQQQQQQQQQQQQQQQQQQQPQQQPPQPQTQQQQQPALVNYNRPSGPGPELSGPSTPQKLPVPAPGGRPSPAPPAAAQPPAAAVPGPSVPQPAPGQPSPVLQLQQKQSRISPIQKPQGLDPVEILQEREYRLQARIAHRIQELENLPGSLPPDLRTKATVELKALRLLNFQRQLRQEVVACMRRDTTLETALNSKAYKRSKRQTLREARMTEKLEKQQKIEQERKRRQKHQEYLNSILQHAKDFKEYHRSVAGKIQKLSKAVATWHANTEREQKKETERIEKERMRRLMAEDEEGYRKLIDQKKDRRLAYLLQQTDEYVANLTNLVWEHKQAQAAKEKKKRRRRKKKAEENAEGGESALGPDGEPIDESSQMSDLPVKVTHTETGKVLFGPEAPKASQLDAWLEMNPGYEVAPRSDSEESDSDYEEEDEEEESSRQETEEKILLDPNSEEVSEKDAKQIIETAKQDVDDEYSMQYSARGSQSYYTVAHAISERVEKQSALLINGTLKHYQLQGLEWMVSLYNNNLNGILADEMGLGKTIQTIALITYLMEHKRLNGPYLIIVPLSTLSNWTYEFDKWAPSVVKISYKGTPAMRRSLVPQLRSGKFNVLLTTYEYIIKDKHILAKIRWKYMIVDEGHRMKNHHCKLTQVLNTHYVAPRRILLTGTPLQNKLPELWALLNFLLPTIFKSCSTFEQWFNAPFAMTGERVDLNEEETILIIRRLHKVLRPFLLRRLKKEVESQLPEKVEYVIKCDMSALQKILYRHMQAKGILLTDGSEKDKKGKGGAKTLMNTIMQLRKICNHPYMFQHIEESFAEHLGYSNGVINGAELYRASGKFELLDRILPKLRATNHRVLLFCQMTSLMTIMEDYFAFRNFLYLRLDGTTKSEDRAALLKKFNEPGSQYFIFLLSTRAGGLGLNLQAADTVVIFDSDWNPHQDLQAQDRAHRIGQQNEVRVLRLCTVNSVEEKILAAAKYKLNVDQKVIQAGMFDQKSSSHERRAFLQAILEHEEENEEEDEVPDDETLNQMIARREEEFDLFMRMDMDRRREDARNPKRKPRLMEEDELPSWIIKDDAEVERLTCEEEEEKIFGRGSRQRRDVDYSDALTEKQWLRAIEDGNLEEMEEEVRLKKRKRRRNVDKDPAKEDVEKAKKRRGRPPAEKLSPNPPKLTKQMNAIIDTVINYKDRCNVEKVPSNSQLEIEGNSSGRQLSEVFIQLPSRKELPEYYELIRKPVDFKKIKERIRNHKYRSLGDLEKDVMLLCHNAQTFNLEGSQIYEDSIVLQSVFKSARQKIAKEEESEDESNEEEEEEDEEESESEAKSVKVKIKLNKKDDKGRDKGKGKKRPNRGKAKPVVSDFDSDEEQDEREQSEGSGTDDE

| Compound | DC50 | Emax |
| --- | --- | --- |
| Nc1nnc(-c2ccccc2O)cc1N1CC(Oc2ccc(CN3CCN(C(=O)CCCCCCNc4cccc5c4C(=O)N(C4CCC(=O)NC4=O)C5=O)CC3)cc2)C1 (stereo not shown) [Example 67, 4-[[7-[4-[[4-[1-[3-amino-6-(2-hydroxyphenyl)pyridazin-4-yl]azetidin-3-yl]oxyphenyl]methyl]piperazin-1-yl]-7-oxo-heptyl]amino]-2-(2,6-dioxo-3-piperidyl)isoindoline-1,3-dione] | 37 nM | 54% |
| Nc1nnc(-c2ccccc2O)cc1N1CC(Oc2ccc(CN3CCN(C(=O)CCCCCCCCCNc4cccc5c4C(=O)N(C4CCC(=O)NC4=O)C5=O)CC3)cc2)C1 (stereo not shown) [Example 68, 4-[[10-[4-[[4-[1-[3-amino-6-(2-hydroxyphenyl)pyridazin-4-yl]azetidin-3-yl]oxyphenyl]methyl]piperazin-1-yl]-10-oxo-decyl]amino]-2-(2,6-dioxo-3-piperidyl)isoindoline-1,3-dione] | 201 nM | 55% |
| Nc1nnc(-c2ccccc2O)cc1N1CCC(CNC(=O)C2CCN(c3cccc4c3C(=O)N(C3CCC(=O)NC3=O)C4=O)CC2)(c2ccccc2)CC1 (stereo not shown) [Example 71, N-[[1-[3-amino-6-(2-hydroxyphenyl)pyridazin-4-yl]-4-phenyl-4-piperidyl]methyl]-1-[2-(2,6-dioxo-3-piperidyl)-1,3-dioxo-isoindolin-4-yl]piperidine-4-carboxamide] | 326 nM | 46% |
| Nc1nnc(-c2ccccc2O)cc1N1CCC(CNC(=O)COc2cccc3c2C(=O)N(C2CCC(=O)NC2=O)C3=O)(c2ccccc2)CC1 (stereo not shown) [Example 72, N-[[1-[3-amino-6-(2-hydroxyphenyl)pyridazin-4-yl]-4-phenyl-4-piperidyl]methyl]-2-[2-(2,6-dioxo-3-piperidyl)-1,3-dioxo-isoindolin-4-yl]oxy-acetamide] | 273 nM | 62% |
| Nc1nnc(-c2ccccc2O)cc1N1CCC(CNC(=O)COc2ccc3c(c2)C(=O)N(C2CCC(=O)NC2=O)C3=O)(c2ccccc2)CC1 (stereo not shown) [Example 73, N-((1-(3-amino-6-(2-hydroxyphenyl)pyridazin-4-yl)-4-phenylpiperidin-4-yl)methyl)-2-((2-(2,6-dioxopiperidin-3-yl)-1,3-dioxoisoindolin-5-yl)oxy)acetamide] | 114 nM | 49% |
| Nc1nnc(-c2ccccc2O)cc1N1CCC(CNC(=O)C2CCN(c3ccc4c(c3)C(=O)N(C3CCC(=O)NC3=O)C4=O)CC2)(c2ccccc2)CC1 (stereo not shown) [Example 74, N-((1-(3-amino-6-(2-hydroxyphenyl)pyridazin-4-yl)-4-phenylpiperidin-4-yl)methyl)-1-(2-(2,6-dioxopiperidin-3-yl)-1,3-dioxoisoindolin-5-yl)piperidine-4-carboxamide] | 70 nM | 46% |
| Nc1nnc(-c2ccccc2O)cc1N1CCC(CNC(=O)CCNc2cccc3c2C(=O)N(C2CCC(=O)NC2=O)C3=O)(c2ccccc2)CC1 (stereo not shown) [Example 75, N-((1-(3-amino-6-(2-hydroxyphenyl)pyridazin-4-yl)-4-phenylpiperidin-4-yl)methyl)-3-((2-(2,6-dioxopiperidin-3-yl)-1,3-dioxoisoindolin-4-yl)amino)] | 1430 nM | 63% |
| Nc1nnc(-c2ccccc2O)cc1N1CCC(CNC(=O)CNc2cccc3c2C(=O)N(C2CCC(=O)NC2=O)C3=O)(c2ccccc2)CC1 (stereo not shown) [Example 76, N-((1-(3-amino-6-(2-hydroxyphenyl)pyridazin-4-yl)-4-phenylpiperidin-4-yl)methyl)-2-((2-(2,6-dioxopiperidin-3-yl)-1,3-dioxoisoindolin-4-yl)amino)acetamide] | 221 nM | 57% |
| Nc1nnc(-c2ccccc2O)cc1N1CCC(CNC(=O)CC2CCN(c3ccc4c(c3)C(=O)N(C3CCC(=O)NC3=O)C4=O)CC2)(c2ccccc2)CC1 (stereo not shown) [Example 77, N-((1-(3-amino-6-(2-hydroxyphenyl)pyridazin-4-yl)-4-phenylpiperidin-4-yl)methyl)-2-(1-(2-(2,6-dioxopiperidin-3-yl)-1,3-dioxoisoindolin-5-yl)piperidin-4-yl)acetamide] | 77 nM | 57% |
| Nc1nnc(-c2ccccc2O)cc1N1CCC(CNC(=O)CCCN2CCC(c3ccc(OC4CCC(=O)NC4=O)cc3)CC2)(c2ccccc2)CC1 (stereo not shown) [Example 78, N-((1-(3-amino-6-(2-hydroxyphenyl)pyridazin-4-yl)-4-phenylpiperidin-4-yl)methyl)-4-(4-(4-((2,6-dioxopiperidin-3-yl)oxy)phenyl)piperidin-1-yl)butanamide] | 23 nM | 35% |
| Nc1nnc(-c2ccccc2O)cc1N1CCN(c2ccccc2)C(C(=O)NCC2CCN(C(=O)C3CCN(c4ccc5c(c4)C(=O)N(C4CCC(=O)NC4=O)C5=O)CC3)CC2)C1 (stereo not shown) [Example 82, 4-(3-amino-6-(2-hydroxyphenyl)pyridazin-4-yl)-N-((1-(1-(2-(2,6-dioxopiperidin-3-yl)-1,3-dioxoisoindolin-5-yl)piperidine-4-carbonyl)piperidin-4-yl)methyl)-1-phenylpiperazine-2-carboxamide] | 190 nM | 65% |
| Nc1nnc(-c2ccccc2O)cc1N1CCC2(CC1)CN(c1cccc(OCCN3CCN(C(=O)C4CCN(c5ccc6c(c5)C(=O)N(C5CCC(=O)NC5=O)C6=O)CC4)CC3)c1)CCO2 (stereo not shown) [Example 83, 5-(4-(4-(2-(3-(9-(3-amino-6-(2-hydroxyphenyl)pyridazin-4-yl)-1-oxa-4,9-diazaspiro[5.5]undecan-4-yl)phenoxy)ethyl)piperazine-1-carbonyl)piperidin-1-yl)-2-(2,6-dioxopiperidin-3-yl)isoindoline-1,3-dione] | 273 nM | 59% |
| Nc1nnc(-c2ccccc2O)cc1N1CCN(c2cccc(OCCN3CCN(C(=O)C4CCN(c5ccc6c(c5)C(=O)N(C5CCC(=O)NC5=O)C6=O)CC4)CC3)c2)C2(CC2)C1 (stereo not shown) [Example 84, 5-(4-(4-(2-(3-(7-(3-amino-6-(2-hydroxyphenyl)pyridazin-4-yl)-4,7-diazaspiro[2.5]octan-4-yl)phenoxy)ethyl)piperazine-1-carbonyl)piperidin-1-yl)-2-(2,6-dioxopiperidin-3-yl)isoindoline-1,3-dione] | 17 nM | 26% |
| Nc1nnc(-c2ccccc2O)cc1N1CCN(c2ccccc2)C(C(=O)NCC2CCC(NC(=O)C3CCN(c4ccc5c(c4)C(=O)N(C4CCC(=O)NC4=O)C5=O)CC3)CC2)C1 (stereo not shown) [Example 85, 4-[3-amino-6-(2-hydroxyphenyl)pyridazin-4-yl]-N-[[4-[[1-[2-(2,6-dioxopiperidin-3-yl)-1,3-dioxoisoindol-5-yl]piperidine-4-carbonyl]amino]cyclohexyl]methyl]-1-phenylpiperazine-2-carboxamide] | 92 nM | 43% |
| Nc1nnc(-c2ccccc2O)cc1N1CCC(C(=O)NCC2CCN(C(=O)C3CCN(c4ccc5c(c4)C(=O)N(C4CCC(=O)NC4=O)C5=O)CC3)CC2)(c2ccccc2)CC1 (stereo not shown) [Example 86, 1-[3-amino-6-(2-hydroxyphenyl)pyridazin-4-yl]-N-[[1-[1-[2-(2,6-dioxo-3-piperidyl)-1,3-dioxo-isoindolin-5-yl]piperidine-4-carbonyl]-4-piperidyl]methyl]-4-phenyl-piperidine-4-carboxamide] | 59 nM | 37% |
| Nc1nnc(-c2ccccc2O)cc1N1CCN(c2ccccc2)C(C(=O)NC2CCN(C(=O)C3CCN(c4ccc5c(c4)C(=O)N(C4CCC(=O)NC4=O)C5=O)CC3)CC2)C1 (stereo not shown) [Example 87, 4-(3-amino-6-(2-hydroxyphenyl)pyridazin-4-yl)-N-(1-(1-(2-(2,6-dioxopiperidin-3-yl)-1,3-dioxoisoindolin-5-yl)piperidine-4-carbonyl)piperidin-4-yl)-1-phenylpiperazine-2-carboxamide] | 81 nM | 48% |
| CC(C)(Nc1cccc2c1C(=O)N(C1CCC(=O)NC1=O)C2=O)c1cn(CCCCCCCCCN2CCN(c3ccc(N4CCCC(Oc5cc(-c6ccccc6O)nnc5N)C4)cc3)CC2)nn1 (stereo not shown) [Example 88, 4-[[1-[1-[9-[4-[4-[3-[3-amino-6-(2-hydroxyphenyl)pyridazin-4-yl]oxy-1-piperidyl]phenyl]piperazin-1-yl]nonyl]triazol-4-yl]-1-methyl-ethyl]amino]-2-(2,6-dioxo-3-piperidyl)isoindoline-1,3-dione] | 55 nM | 37% |
| CC(Nc1cccc2c1C(=O)N(C1CCC(=O)NC1=O)C2=O)c1cn(CCCCCCCCCN2CCN(c3ccc(N4CCCC(Oc5cc(-c6ccccc6O)nnc5N)C4)cc3)CC2)nn1 (stereo not shown) [Example 89, 4-[1-[1-[9-[4-[4-[3-[3-amino-6-(2-hydroxyphenyl)pyridazin-4-yl]oxy-1-piperidyl]phenyl]piperazin-1-yl]nonyl]triazol-4-yl]ethylamino]-2-(2,6-dioxo-3-piperidyl)isoindoline-1,3-dione] | 55 nM | 30% |
| Nc1nnc(-c2ccccc2O)cc1OC1CCCN(c2ccc(N3CCN(CCCCCCCCCn4cc(C5(Nc6cccc7c6C(=O)N(C6CCC(=O)NC6=O)C7=O)CC5)nn4)CC3)cc2)C1 (stereo not shown) [Example 90, 4-[[1-[1-[9-[4-[4-[3-[3-amino-6-(2-hydroxyphenyl)pyridazin-4-yl]oxy-1-piperidyl]phenyl]piperazin-1-yl]nonyl]triazol-4-yl]cyclopropyl]amino]-2-(2,6-dioxo-3-piperidyl)isoindoline-1,3-dione] | 103 nM | 37% |
| Nc1nnc(-c2ccccc2O)cc1N1CCC(NC(=O)CCCN2CCC(c3ccc(NC4CCC(=O)NC4=O)cc3)CC2)(c2ccccc2)CC1 (stereo not shown) [Example 91, N-[1-[3-amino-6-(2-hydroxyphenyl)pyridazin-4-yl]-4-phenyl-4-piperidyl]-4-[4-[4-[(2,6-dioxo-3-piperidyl)amino]phenyl]-1-piperidyl]butanamide] | 90 nM | 46% |
